Test results reported in PubChem BioAssay (NCI).
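How tested: cells in 96-well plates exposed to compound for 48 hours at five concentrations. TGI: total growth inhibition.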

How the values were obtained:
Assay in all cases: NCI tumour cell line growth inhibition, 48 h
786-0 renal = system: 786-0 renal
A498 renal = system: A498 renal
A549 NSCLC = system: A549 NSCLC
ACHN renal = system: ACHN renal
BT-549 breast = system: BT-549 breast
CAKI-1 renal = system: CAKI-1 renal
CCRF-CEM leukemia = system: CCRF-CEM leukemia
COLO 205 colon = system: COLO 205 colon
DU-145 prostate = system: DU-145 prostate
HCC-2998 colon = system: HCC-2998 colon
HCT-116 colon = system: HCT-116 colon
HCT-15 colon = system: HCT-15 colon
HL-60(TB) leukemia = system: HL-60(TB) leukemia
HOP-92 NSCLC = system: HOP-92 NSCLC
HT29 colon = system: HT29 colon
IGROV1 ovarian = system: IGROV1 ovarian
K-562 leukemia = system: K-562 leukemia
KM12 colon = system: KM12 colon
M14 melanoma = system: M14 melanoma
MALME-3M melanoma = system: MALME-3M melanoma
MCF7 breast = system: MCF7 breast
MDA-MB-231 breast = system: MDA-MB-231 breast
MDA-MB-435 = system: MDA-MB-435
MDA-N = system: MDA-N
MOLT-4 leukemia = system: MOLT-4 leukemia
NCI-H226 lung = system: NCI-H226 lung
NCI-H23 lung = system: NCI-H23 lung
NCI-H460 lung = system: NCI-H460 lung
NCI-H522 lung = system: NCI-H522 lung
NCI/ADR-RES ovarian = system: NCI/ADR-RES ovarian
OVCAR-3 ovarian = system: OVCAR-3 ovarian
OVCAR-4 ovarian = system: OVCAR-4 ovarian
OVCAR-5 ovarian = system: OVCAR-5 ovarian
OVCAR-8 ovarian = system: OVCAR-8 ovarian
PC-3 prostate = system: PC-3 prostate
RPMI-8226 leukemia = system: RPMI-8226 leukemia
RXF 393 renal = system: RXF 393 renal
SF-268 CNS = system: SF-268 CNS
SF-295 CNS = system: SF-295 CNS
SF-539 CNS = system: SF-539 CNS
SK-MEL-2 melanoma = system: SK-MEL-2 melanoma
SK-MEL-28 melanoma = system: SK-MEL-28 melanoma
SK-MEL-5 melanoma = system: SK-MEL-5 melanoma
SN12C renal = system: SN12C renal
SNB-19 CNS = system: SNB-19 CNS
SNB-75 CNS = system: SNB-75 CNS
SW-620 colon = system: SW-620 colon
T-47D breast = system: T-47D breast
TK-10 renal = system: TK-10 renal
U251 CNS = system: U251 CNS
UACC-257 melanoma = system: UACC-257 melanoma
UACC-62 melanoma = system: UACC-62 melanoma
UO-31 renal = system: UO-31 renal
EKVX NSCLC = system: EKVX NSCLC
LOX IMVI melanoma = system: LOX IMVI melanoma
SK-OV-3 ovarian = system: SK-OV-3 ovarian
HOP-62 NSCLC = system: HOP-62 NSCLC
SR leukemia = system: SR leukemia

Measured: TGI

CC(C(N)=O)N(C)C(=O)c1cc2ccccc2[n+](Cc2ccccc2)c1 (stereo not drawn)
> 100 µM: 786-0 renal | A498 renal | A549 NSCLC | ACHN renal | BT-549 breast | CAKI-1 renal | CCRF-CEM leukemia | COLO 205 colon | DU-145 prostate | HCC-2998 colon | HCT-116 colon | HCT-15 colon | HL-60(TB) leukemia | HOP-92 NSCLC | HT29 colon | IGROV1 ovarian | K-562 leukemia | KM12 colon | M14 melanoma | MALME-3M melanoma | MCF7 breast | MDA-MB-231 breast | MDA-MB-435 | MDA-N | MOLT-4 leukemia | NCI-H226 lung | NCI-H23 lung | NCI-H460 lung | NCI-H522 lung | NCI/ADR-RES ovarian | OVCAR-3 ovarian | OVCAR-4 ovarian | OVCAR-5 ovarian | OVCAR-8 ovarian | PC-3 prostate | RPMI-8226 leukemia | RXF 393 renal | SF-268 CNS | SF-295 CNS | SF-539 CNS | SK-MEL-2 melanoma | SK-MEL-28 melanoma | SK-MEL-5 melanoma | SN12C renal | SNB-19 CNS | SNB-75 CNS | SW-620 colon | T-47D breast | TK-10 renal | U251 CNS | UACC-257 melanoma | UACC-62 melanoma | UO-31 renal

COc1nc(-c2cn(S(=O)(=O)c3ccc(C)cc3)c3ccc(Br)cc23)cc(C(F)(F)F)c1C#N
53.9 µM: NCI-H226 lung
35.2 µM: U251 CNS
64.9 µM: OVCAR-8 ovarian
74.2 µM: BT-549 breast
42.9 µM: T-47D breast
41.8 µM: RPMI-8226 leukemia
62.4 µM: SNB-19 CNS
44.9 µM: NCI-H23 lung
49.4 µM: SNB-75 CNS
59.5 µM: SK-OV-3 ovarian
35.8 µM: OVCAR-3 ovarian
31.3 µM: DU-145 prostate
> 100 µM: A498 renal | A549 NSCLC | ACHN renal | CAKI-1 renal | CCRF-CEM leukemia | COLO 205 colon | EKVX NSCLC | HCC-2998 colon | HCT-15 colon | HL-60(TB) leukemia | HOP-92 NSCLC | HT29 colon | IGROV1 ovarian | K-562 leukemia | KM12 colon | LOX IMVI melanoma | MALME-3M melanoma | MCF7 breast | MDA-MB-435 | MDA-N | MOLT-4 leukemia | NCI-H460 lung | NCI-H522 lung | NCI/ADR-RES ovarian | OVCAR-4 ovarian | OVCAR-5 ovarian | PC-3 prostate | SF-268 CNS | SF-295 CNS | SF-539 CNS | SK-MEL-2 melanoma | SK-MEL-28 melanoma | SK-MEL-5 melanoma | SN12C renal | SW-620 colon | UACC-257 melanoma | UACC-62 melanoma | UO-31 renal
58.8 µM: RXF 393 renal

O=C(O)c1ccccc1SCc1cccc2c(=O)c3ccc(Cl)cc3oc12
27.7 µM: HL-60(TB) leukemia
47.3 µM: HOP-62 NSCLC
> 50 µM: 786-0 renal | A498 renal | A549 NSCLC | ACHN renal | BT-549 breast | CAKI-1 renal | CCRF-CEM leukemia | COLO 205 colon | EKVX NSCLC | HCC-2998 colon | HCT-116 colon | HCT-15 colon | HT29 colon | IGROV1 ovarian | K-562 leukemia | KM12 colon | LOX IMVI melanoma | M14 melanoma | MCF7 breast | MDA-MB-231 breast | MDA-MB-435 | MDA-N | MOLT-4 leukemia | NCI-H226 lung | NCI-H23 lung | NCI-H522 lung | NCI/ADR-RES ovarian | OVCAR-3 ovarian | OVCAR-4 ovarian | OVCAR-5 ovarian | OVCAR-8 ovarian | PC-3 prostate | RPMI-8226 leukemia | SF-295 CNS | SF-539 CNS | SK-MEL-2 melanoma | SK-MEL-28 melanoma | SK-MEL-5 melanoma | SK-OV-3 ovarian | SN12C renal | SNB-75 CNS | SR leukemia | SW-620 colon | T-47D breast | TK-10 renal | U251 CNS | UACC-257 melanoma | UACC-62 melanoma | UO-31 renal
44.9 µM: MALME-3M melanoma

Cc1cc(S(=O)(=O)Nc2nc(N)nc(N(C)C)n2)c(S)cc1Cl
> 10 µM: 786-0 renal | A498 renal | A549 NSCLC | ACHN renal | BT-549 breast | CAKI-1 renal | CCRF-CEM leukemia | COLO 205 colon | DU-145 prostate | EKVX NSCLC | HCC-2998 colon | HCT-116 colon | HCT-15 colon | HL-60(TB) leukemia | HOP-62 NSCLC | HOP-92 NSCLC | HT29 colon | IGROV1 ovarian | K-562 leukemia | KM12 colon | LOX IMVI melanoma | M14 melanoma | MALME-3M melanoma | MCF7 breast | MDA-N | MOLT-4 leukemia | NCI-H226 lung | NCI-H23 lung | NCI-H460 lung | NCI-H522 lung | NCI/ADR-RES ovarian | OVCAR-3 ovarian | OVCAR-4 ovarian | OVCAR-5 ovarian | OVCAR-8 ovarian | PC-3 prostate | RPMI-8226 leukemia | RXF 393 renal | SF-268 CNS | SF-295 CNS | SF-539 CNS | SK-MEL-2 melanoma | SK-MEL-28 melanoma | SK-MEL-5 melanoma | SK-OV-3 ovarian | SN12C renal | SNB-19 CNS | SNB-75 CNS | SR leukemia | SW-620 colon | T-47D breast | TK-10 renal | U251 CNS | UACC-257 melanoma | UO-31 renal

CCOC(=O)[C@@H]1C2C(=C[C@H]3[C@H]1C(=O)N1CCCC[C@H]31)CCCN2C(=O)OCc1ccccc1 (stereo partly drawn)
62.5 µM: BT-549 breast
56.8 µM: SK-MEL-2 melanoma
45 µM: HL-60(TB) leukemia
82.6 µM: NCI-H460 lung
81.2 µM: NCI/ADR-RES ovarian
96 µM: A498 renal
53.1 µM: HCC-2998 colon
45.2 µM: NCI-H522 lung
39.2 µM: UACC-62 melanoma
93.9 µM: NCI-H23 lung
38.2 µM: MOLT-4 leukemia
77.6 µM: PC-3 prostate
46.4 µM: RPMI-8226 leukemia
60.3 µM: SF-268 CNS
> 100 µM: 786-0 renal | A549 NSCLC | ACHN renal | CAKI-1 renal | CCRF-CEM leukemia | DU-145 prostate | EKVX NSCLC | HCT-116 colon | HCT-15 colon | HOP-62 NSCLC | HOP-92 NSCLC | HT29 colon | IGROV1 ovarian | K-562 leukemia | KM12 colon | LOX IMVI melanoma | M14 melanoma | MALME-3M melanoma | MCF7 breast | MDA-MB-231 breast | MDA-MB-435 | MDA-N | NCI-H226 lung | OVCAR-3 ovarian | OVCAR-4 ovarian | OVCAR-5 ovarian | OVCAR-8 ovarian | RXF 393 renal | SF-295 CNS | SF-539 CNS | SK-MEL-28 melanoma | SK-MEL-5 melanoma | SK-OV-3 ovarian | SN12C renal | SNB-19 CNS | SNB-75 CNS | SW-620 colon | T-47D breast | TK-10 renal | U251 CNS | UACC-257 melanoma | UO-31 renal
51.3 µM: COLO 205 colon
